Earlier results on 1 compound are cited in patent US7851459B2, “Methods for diluting water-stabilized antimicrobial organosilane compositions” (Vitec Speciality Chemicals Limited, priority 2007, dated 2010).

For the data set the following is noted: mixture of organosilane and water.

Regarding `CCCCCCCCCCCCCCCCCC[N+](C)(C)CCC[Si](OC)(OC)OC.[Cl-]` [3-(trimethoxysilyl)propyl-dimethyloctadecyl ammonium chloride], the “time until mixture with water begins to lose effectiveness” value is “four to eight”.
